Measured values from PubChem BioAssay AID1963961 (Molecular Pharmacology Branch, DTP, NCI, 2024).

System: K98450-129-R-PDC multicell spheroids, viability
Assay: Anticancer human tumor K98450-129-R-PDC patient-derived colon adenocarcinoma cell line growth inhibition [PI3K]
Conditions: for IC50: curve of first compound; for viability, T/C: stronger effect = lower value
Outline: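 Multi-cell spheroids combine tumor cells with HUVEC and human MSCs, treated with targeted agents alone or with inavolisib, alpelisib, duvelisib or copanlisib. Concentrations fall in half-log steps from at or near clinical Cmax, or from 10 microM where Cmax is unknown; viability read-out.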

[1] = second compound 0.0316 µM, first compound 0.0316 µM
[2] = second compound 0.0316 µM, first compound 0.1 µM
[3] = second compound 0.0316 µM, first compound 0.316 µM
[4] = second compound 0.0316 µM, first compound 1 µM
[5] = second compound 0.0316 µM, first compound 3.16 µM
[6] = second compound 0.0316 µM, first compound 10 µM
[7] = second compound 0.1 µM, first compound 0.0316 µM
[8] = second compound 0.1 µM, first compound 0.1 µM
[9] = second compound 0.1 µM, first compound 0.316 µM
[10] = second compound 0.1 µM, first compound 1 µM
[11] = second compound 0.1 µM, first compound 3.16 µM
[12] = second compound 0.1 µM, first compound 10 µM
[13] = second compound 0.316 µM, first compound 0.0316 µM
[14] = second compound 0.316 µM, first compound 0.1 µM
[15] = second compound 0.316 µM, first compound 0.316 µM
[16] = second compound 0.316 µM, first compound 1 µM
[17] = second compound 0.316 µM, first compound 3.16 µM
[18] = second compound 0.316 µM, first compound 10 µM
[19] = second compound 1 µM, first compound 0.0316 µM
[20] = second compound 1 µM, first compound 0.1 µM
[21] = second compound 1 µM, first compound 0.316 µM
[22] = second compound 1 µM, first compound 1 µM
[23] = second compound 1 µM, first compound 3.16 µM
[24] = second compound 1 µM, first compound 10 µM
[25] = second compound 3.16 µM, first compound 0.0316 µM
[26] = second compound 3.16 µM, first compound 0.1 µM
[27] = second compound 3.16 µM, first compound 0.316 µM
[28] = second compound 3.16 µM, first compound 1 µM
[29] = second compound 3.16 µM, first compound 3.16 µM
[30] = second compound 3.16 µM, first compound 10 µM
[31] = second compound 10 µM, first compound 0.0316 µM
[32] = second compound 10 µM, first compound 0.1 µM
[33] = second compound 10 µM, first compound 0.316 µM
[34] = second compound 10 µM, first compound 1 µM
[35] = second compound 10 µM, first compound 3.16 µM
[36] = second compound 10 µM, first compound 10 µM
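Note: spheroids exposed to agents for seven days before read-out.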

C[C@@H](NC(=O)c1ncnc(N)c1Cl)c1ncc(C(=O)Nc2cc(C(F)(F)F)c(Cl)cn2)s1 + Cc1nc(NC(=O)N2CCCC2C(N)=O)sc1-c1ccnc(C(C)(C)C(F)(F)F)c1 was tested, and the IC50 (second compound 0.0316 µM) was greater than 10 µM, the IC50 (second compound 0.1 µM) was greater than 10 µM and the IC50 (second compound 0.316 µM) was greater than 10 µM. The IC50 (second compound 1 µM) was greater than 10 µM, the IC50 (second compound 3.16 µM) was greater than 10 µM and the IC50 (second compound 10 µM) was greater than 10 µM. It also gave a viability, T/C [1] of 104%, a viability, T/C [2] of 106% and a viability, T/C [3] of 119%. It also gave a viability, T/C [4] of 117%, a viability, T/C [5] of 112% and a viability, T/C [6] of 103%. For the same molecule, the viability, T/C [7] was 117%, the viability, T/C [8] was 98.2% and the viability, T/C [9] was 119%. For the same molecule, the viability, T/C [10] was 104%, the viability, T/C [11] was 112% and the viability, T/C [12] was 104%. It also gave a viability, T/C [13] of 107%, a viability, T/C [14] of 104% and a viability, T/C [15] of 106%. The viability, T/C [16] was 108%, the viability, T/C [17] was 110% and the viability, T/C [18] was 103%. For the same molecule, the viability, T/C [19] was 92.6%, the viability, T/C [20] was 99% and the viability, T/C [21] was 105%. It also gave a viability, T/C [22] of 102%, a viability, T/C [23] of 111% and a viability, T/C [24] of 90%. It also gave a viability, T/C [25] of 84.8%, a viability, T/C [26] of 90.3% and a viability, T/C [27] of 96.5%. For the same molecule, the viability, T/C [28] was 91.7%, the viability, T/C [29] was 95.8% and the viability, T/C [30] was 75.1%. It also gave a viability, T/C [31] of 76.5%, a viability, T/C [32] of 74.3% and a viability, T/C [33] of 83.7%. It also gave a viability, T/C [34] of 76.8%, a viability, T/C [35] of 72.5% and a viability, T/C [36] of 58.5%.

For Cn1ncc(Cl)c1-c1cc(C(=O)NC(CN)Cc2cccc(F)c2)sc1Cl (stereo unspecified) + Cc1nc(NC(=O)N2CCCC2C(N)=O)sc1-c1ccnc(C(C)(C)C(F)(F)F)c1, the IC50 (second compound 0.0316 µM) was greater than 10 µM, the IC50 (second compound 0.1 µM) was greater than 10 µM and the IC50 (second compound 0.316 µM) was greater than 10 µM. It also gave an IC50 (second compound 1 µM) greater than 10 µM, an IC50 (second compound 3.16 µM) greater than 10 µM and an IC50 (second compound 10 µM) greater than 10 µM. For the same molecule, the viability, T/C [1] was 97.8%, the viability, T/C [2] was 95% and the viability, T/C [3] was 109%. For the same molecule, the viability, T/C [4] was 93.1%, the viability, T/C [5] was 88.9% and the viability, T/C [6] was 74.3%. It also gave a viability, T/C [7] of 109%, a viability, T/C [8] of 99.4% and a viability, T/C [9] of 99.7%. The viability, T/C [10] was 90.8%, the viability, T/C [11] was 89.2% and the viability, T/C [12] was 78.3%. It also gave a viability, T/C [13] of 101%, a viability, T/C [14] of 93.1% and a viability, T/C [15] of 91.9%. The viability, T/C [16] was 92.1%, the viability, T/C [17] was 91.3% and the viability, T/C [18] was 76.9%. For the same molecule, the viability, T/C [19] was 94%, the viability, T/C [20] was 91% and the viability, T/C [21] was 97.1%. It also gave a viability, T/C [22] of 89.6%, a viability, T/C [23] of 91.7% and a viability, T/C [24] of 72.9%. The viability, T/C [25] was 82.9%, the viability, T/C [26] was 85.1% and the viability, T/C [27] was 86.8%. The viability, T/C [28] was 80.4%, the viability, T/C [29] was 86.2% and the viability, T/C [30] was 63.8%. The viability, T/C [31] was 66.9%, the viability, T/C [32] was 69.6% and the viability, T/C [33] was 74.1%. The viability, T/C [34] was 72.5%, the viability, T/C [35] was 78.5% and the viability, T/C [36] was 52.2%.

For Cn1ncnc1[C@H]1c2n[nH]c(=O)c3cc(F)cc(c23)N[C@@H]1c1ccc(F)cc1 + Cc1nc(NC(=O)N2CCCC2C(N)=O)sc1-c1ccnc(C(C)(C)C(F)(F)F)c1, the IC50 (second compound 0.0316 µM) was greater than 0.1 µM, the IC50 (second compound 0.1 µM) was greater than 0.1 µM and the IC50 (second compound 0.316 µM) was greater than 0.1 µM. For the same molecule, the IC50 (second compound 1 µM) was greater than 0.1 µM, the IC50 (second compound 3.16 µM) was greater than 0.1 µM and the IC50 (second compound 10 µM) was greater than 0.1 µM. The viability, T/C (second compound 0.0316 µM, first compound 0.000316 µM) was 110%, the viability, T/C (second compound 0.0316 µM, first compound 0.001 µM) was 108% and the viability, T/C (second compound 0.0316 µM, first compound 0.00316 µM) was 109%. It also gave a viability, T/C (second compound 0.0316 µM, first compound 0.01 µM) of 97.3%, a viability, T/C [1] of 101% and a viability, T/C [2] of 96.3%. The viability, T/C (second compound 0.1 µM, first compound 0.000316 µM) was 108%, the viability, T/C (second compound 0.1 µM, first compound 0.001 µM) was 99.2% and the viability, T/C (second compound 0.1 µM, first compound 0.00316 µM) was 106%. For the same molecule, the viability, T/C (second compound 0.1 µM, first compound 0.01 µM) was 100%, the viability, T/C [7] was 102% and the viability, T/C [8] was 97.6%. For the same molecule, the viability, T/C (second compound 0.316 µM, first compound 0.000316 µM) was 96.5%, the viability, T/C (second compound 0.316 µM, first compound 0.001 µM) was 99% and the viability, T/C (second compound 0.316 µM, first compound 0.00316 µM) was 99.9%. For the same molecule, the viability, T/C (second compound 0.316 µM, first compound 0.01 µM) was 97.8%, the viability, T/C [13] was 104% and the viability, T/C [14] was 87.3%. It also gave a viability, T/C (second compound 1 µM, first compound 0.000316 µM) of 89.4%, a viability, T/C (second compound 1 µM, first compound 0.001 µM) of 98.1% and a viability, T/C (second compound 1 µM, first compound 0.00316 µM) of 95.2%. For the same molecule, the viability, T/C (second compound 1 µM, first compound 0.01 µM) was 90.7%, the viability, T/C [19] was 101% and the viability, T/C [20] was 91.9%. It also gave a viability, T/C (second compound 3.16 µM, first compound 0.000316 µM) of 85%, a viability, T/C (second compound 3.16 µM, first compound 0.001 µM) of 89.4% and a viability, T/C (second compound 3.16 µM, first compound 0.00316 µM) of 86.9%. For the same molecule, the viability, T/C (second compound 3.16 µM, first compound 0.01 µM) was 86%, the viability, T/C [25] was 91.6% and the viability, T/C [26] was 80.3%. It also gave a viability, T/C (second compound 10 µM, first compound 0.000316 µM) of 72.4%, a viability, T/C (second compound 10 µM, first compound 0.001 µM) of 73.1% and a viability, T/C (second compound 10 µM, first compound 0.00316 µM) of 75.7%. For the same molecule, the viability, T/C (second compound 10 µM, first compound 0.01 µM) was 71.5%, the viability, T/C [31] was 74.8% and the viability, T/C [32] was 70.2%.
